Consider 58 molecules from US10485236B2, “Triazole derivatives, intermediates thereof and their use as fungicides” (Bayer CropScience Aktiengesellschaft, priority 2015, dated 2019).

Molecules are shown by their SMILES. Marks after values point to notes of the source that are not given here.

The first data set can be described thus: Measurement of LogP values by HPLC on reversed phase columns (EEC directive 79/831 Annex V.A8).
Details: not given
The class given is physicochemical. Here is the method: [table] If more than one Log P value is available within the same method, all the values are given and separated by “+”. Calibration was done with straight-chain alkan2-ones (with 3 to 16 carbon atoms) with known Log P values (measurement of Log P values using retention times with linear interpolation between successive alkanones). Lambda-max-values were determined using UV-spectra from 200 nm to 400 nm and the peak values of the chromatographic signals.
Regarding `O=C(CBr)c1ccc(Oc2ccc(Br)cc2)nc1C(F)(F)F` [VI.18], the LogP is 4.23^[a].
Still for that read-out and setting: in the case of `CC(=O)c1cnc(Oc2ccc(OC(F)(F)F)cc2)cc1C(F)(F)F` [V.15] it was 4.20^[a]; in that of `O=C(CCl)c1cnc(Oc2ccccc2)cc1Cl` [VI.05], 3.28^[a]; in that of `O=C(c1ccc(Oc2ccc(C(F)(F)F)cc2)nc1C(F)(F)F)C1CC1` [V.39], 4.37^[a].
`CC(=O)c1ccc(Oc2c(F)cc(Cl)cc2F)nc1C(F)(F)F` [V.31]: the LogP is 4.06^[a].
For `OC(Cn1cncn1)c1cnc(Oc2ccc(Cl)cc2)cc1C(F)F` (stereo not shown) [I.94], the LogP was 2.13^[a].
As to `O=C(Cn1cncn1)c1ccc(Oc2ccc(C(F)F)cc2)nc1C(F)(F)F` [VII.42], the LogP was 2.41^[a].
For the molecule `O=C(Cn1cncn1)c1cnc(Oc2ccc(C(F)(F)F)cc2)cc1Cl` [VII.40], the LogP was 2.92^[a].
Regarding `FC(F)(F)c1nc(Oc2ccc(S(F)(F)(F)(F)F)cc2)ccc1C1(C2CC2)CO1` (stereo not shown) [IX.09], the LogP was 5.22^[a].
In the case of `CC(=O)c1ccc(Oc2ccc(F)cc2)nc1Cl` [V.12], the LogP was 3.11^[a].
Consider `O=C(Cn1cncn1)c1ccc(Oc2ccc(OC(F)(F)F)c(Cl)c2)nc1Cl` [VII.04], for which the LogP was 3.33^[a].
The same measure, in the same setting: in the case of `O=C(CBr)c1ccc(Oc2ccc(Cl)c(Cl)c2)nc1Cl` [VI.07] it was 4.58^[a]; in that of `O=C(CCl)c1ncc(Oc2ccc(Cl)cc2)nc1Cl` [VI.10], 3.78^[a]; in that of `O=C(Cn1cncn1)c1cnc(Oc2ccc(C(F)F)cc2)cc1C(F)(F)F` [VII.29], 2.80^[a].
The same measure, in the same setting: to `O=C(CCl)c1cnc(Oc2ccc(OC(F)(F)F)cc2)cc1C(F)(F)F` [VI.21] belongs 4.37^[a].
Regarding `O=C(CCl)c1ccc(Oc2ccc(C(F)F)cc2)nc1C(F)(F)F` [VI.36], the LogP is 3.50^[a].
With `O=C(c1ccc(Oc2ccc(Br)cc2)nc1C(F)(F)F)C1CC1` [V.40], the LogP was 4.49^[a].
In the case of `CC(O)(Cn1cncn1)c1cnc(Oc2ccc(C(F)F)cc2)cc1C(F)(F)F` (stereo not shown) [I.56], the LogP is 2.73^[a].
`OC(Cn1cncn1)c1ccc(Oc2ccc(Cl)cc2)nc1C(F)F` (racemic) [I.25]: the LogP was 2.44^[a].
For the molecule `CC(=O)c1ccc(Oc2ccc(Cl)cc2)nn1` [V.13], the LogP is 2.73^[a].
With `O=C(c1ccc(Oc2ccc(C(F)F)cc2)nc1C(F)(F)F)C1CC1` [V.44], the LogP was 3.80^[a].
With `O=C(Cn1cncn1)c1cnc(Oc2ccccc2)cc1Cl` [VII.05], the LogP is 2.20^[a].
On to `OC(Cn1cncn1)c1ccc(Oc2cc(F)c(F)c(F)c2)nc1Cl` (racemic) [I.20], for which the LogP is 1.65^[a].
Regarding `OC(Cn1cncn1)c1ccc(Oc2ccc(F)cc2)nc1Cl` (racemic) [I.17], the LogP was 2.08^[a].
Regarding `CC(O)(Cn1cncn1)c1cnc(Oc2ccc(Cl)cc2)cc1C(F)F` (stereo not shown) [I.64], the LogP was 2.68^[a].
On the same count and under the same terms, in the case of `OC(Cn1cncn1)(c1ccc(Oc2ccc(Br)cc2)nc1C(F)(F)F)C(F)(F)F` (stereo not shown) [I.85] it was 3.48^[a]; in that of `CCCCC(=O)c1ccc(Oc2ccc(Cl)cc2)nc1C(F)(F)F` [V.48], 5.03^[a]; in that of `CC(O)(Cn1cncn1)c1ccc(Oc2ccc(S(F)(F)(F)(F)F)cc2)nc1C(F)(F)F` (stereo not shown) [I.62], 3.25^[a].
Consider `O=C(Cn1cncn1)c1ccc(Oc2ccc(Cl)c(Cl)c2)nc1Cl` [VII.03], for which the LogP was 3.06^[a].
Consider `CC(O)(Cn1cncn1)c1ccc(Oc2ccc(OC(F)(F)F)cc2)nc1C(F)(F)F` (stereo not shown) [I.95], for which the LogP was 2.98^[a].
Consider `COc1ccc(Oc2ccc(C(O)Cn3cncn3)c(Cl)n2)c(Cl)c1` (racemic) [I.30], for which the LogP was 2.32^[a].
On to `O=C(Cn1cncn1)c1ccc(Oc2ccc(Br)cc2)nc1C(F)F` [VII.35], for which the LogP was 2.68^[a].
As to `OC(Cn1cncn1)c1ccc(Oc2ccc(OC(F)(F)F)cc2)nc1Cl` (racemic) [I.12], the LogP is 2.73^[a].
On to `CC(O)(Cn1cncn1)c1ccc(Oc2ccc(Cl)cc2)nc1F` (stereo not shown) [I.42], for which the LogP is 2.46^[a].
On to `OC(Cn1cncn1)c1ccc(Oc2ccc(Cl)c(Cl)c2)nc1Cl` (racemic) [I.10], for which the LogP is 2.80^[a].
For the molecule `Cc1ccc(Oc2ccc(C(=O)Cn3cncn3)c(Cl)n2)cc1Cl` [VII.11], the LogP is 3.02^[a].
Still for that read-out and setting: to `OC(Cn1cncn1)c1ccc(Oc2ccc(S(F)(F)(F)(F)F)cc2)nc1C(F)(F)F` (stereo not shown) [I.60] belongs 3.08^[a]; to `CC(=O)c1ccc(Oc2ccc(Cl)c(Cl)c2)nc1Cl` [V.11], 4.10^[a]; to `OC(Cn1cncn1)c1ccc(Oc2ccc(Br)cc2)nc1C(F)(F)F` (stereo not shown) [I.40], 2.82^[a].
The same measure, in the same setting: in the case of `O=C(CBr)c1ccc(Oc2ccc(Cl)cc2)nc1C(F)(F)F` [VI.34] it was 4.19^[a]; in that of `CC(O)(Cn1cncn1)c1ccc(Oc2ccc(F)cc2)nc1Cl` (racemic) [I.27], 2.28^[a].
As to `CC(=O)c1ccc(Oc2ccc(OC(F)(F)F)cc2)nc1Cl` [V.28], the LogP was 3.89^[a].
With `Cc1cc(Cl)ccc1Oc1ccc(C(=O)Cn2cncn2)c(Cl)n1` [VII.10], the LogP was 2.94^[a].
Consider `CC(=O)c1ccc(Oc2ccc(Cl)cc2)nc1C(F)F` [V.05], for which the LogP was 3.35^[a].
Same read-out and setting: to `CCCC(=O)c1ccc(Oc2ccc(Cl)cc2)nc1C(F)(F)F` [V.46] belongs 4.59^[a]; to `OC(Cn1cncn1)c1cnc(Oc2ccc(Cl)cc2F)cc1C(F)(F)F` (stereo not shown) [I.57], 2.86^[a].
In the case of `CC(O)(Cn1cncn1)c1cnc(Oc2ccc(Cl)cc2)cc1Cl` (single isomer, unassigned) [I.54], the LogP was 2.53^[a].
As to `CC(=O)c1ccc(Oc2ccc(Cl)cc2)nc1Cl` [V.26], the LogP is 3.45^[a].
As for `O=C(Cn1cncn1)c1ccc(Oc2ccc(C(F)F)cc2)nc1Cl` [VII.22], the LogP is 2.39^[a].
With `OC(Cn1cncn1)c1ccc(Oc2ccc(C(F)(F)F)cc2)nc1C(F)(F)F` (single isomer, unassigned) [I.72], the LogP was 2.86^[a].
In the case of `O=C(CCl)c1cnc(Oc2ccc(Cl)cc2F)cc1C(F)(F)F` [VI.25], the LogP is 4.15^[a].
With `CC(=O)c1ccc(Oc2ccc(Br)cc2)nc1C(F)(F)F` [V.20], the LogP was 3.85^[a].
Regarding `OC(Cn1cncn1)c1ccc(Oc2ccc(F)cc2F)nc1Cl` (racemic) [I.18], the LogP is 2.18^[a].
Take `O=C(CCl)c1cnc(Oc2ccc(C(F)F)cc2)cc1C(F)(F)F` [VI.26]: the LogP was 3.76^[a].
`CC(O)(Cn1cncn1)c1ccc(Oc2ccc(Cl)c(Cl)c2)nc1Cl` (racemic) [I.32]: the LogP is 3.09^[a].

The data set is the same for the next values; noted with them: reversed phase HPLC column, method [a]: LC-UV, acidic range, 0.1% formic acid in water and acetonitrile as eluent.
`O=C(c1ccc(Oc2ccc(Cl)cc2)nc1C(F)(F)F)C1CC1` [V.41, [6-(4-chlorophenoxy)-2-(trifluoromethyl)-3-pyridyl]-cyclopropyl-methanone] had a chromatographic logP of 4.17.
For the molecule `CC(=O)c1ccc(Oc2ccc(Cl)cc2)nc1C(F)(F)F` [V.01, 1-[6-(4-chlorophenoxy)-2-(trifluoromethyl)-3-pyridyl]ethanone], the chromatographic logP is 3.8.
As for `FC(F)(F)c1nc(Oc2ccc(Cl)cc2)ccc1C1(C2CC2)CO1` (stereo not shown) [IX.07, 6-(4-chlorophenoxy)-3-(2-cyclopropyloxiran-2-yl)-2-(trifluoromethyl)pyridine], the chromatographic logP was 4.8.
